Reference: patent publication EP4775036A2, “SYNERGISTIC FORMULATIONS FOR CONTROL AND REPELLENCY OF BITING ARTHROPODS” (Bedoukian Research, Inc., priority 2020, dated 2022)
Values joined by “and” are separate entries in the source; they are usually repeats but may differ in a detail not shown here. Equal entries are not always repeated.

Tests used:
Aedes aegypti mosquitoes = experiment: Arm in cage testing (Modified WHO - Nigel Hill protocol), dose response curves on human subjects, LDP line analysis; type: in vivo; conditions: for Index: ED50 comparison of LDP lines, lowest ED50 = 100; for RR: ED50 relative to the line with the lowest ED50
Procedure: A Modified WHO - Nigel Hill protocol was used for Dose Response curve generation. Three concurrent repetitions were conducted with 4 subjects (2 male, 2 female). Approximately 60 non blood-fed, female Aedes aegypti mosquitoes were placed in a 12"X12"X12" (28316.85 cm^3) plexi and screen cage.
Arms were inserted into the first cage for 30 seconds, with number of landings (with intent to bite) recorded at the end of the time interval. The same procedure was used for the 2nd and 3rd cage in succession. Control arm was inserted first, followed by the opposite arm treated with ethanol only (as a treatment control). The 'treatment arm' is then treated with dose 1 and inserted, then dose 2, dose 3, and so on. After complete protection was achieved, control arm was reinserted to verify continued activity.
Percent repellency was calculated by utilizing the formula [{(C-T)/C}*100]. Where C = the number of mosquitoes landing with intent to bite on the ethanol only treated arm, and T = the number of mosquitoes landing with intent to bite on the 'repellent' treated arm. LDP line® software (Bakr, E 2007) was used to determine ED50 (effective dose to repel 50%) and compare materials.
Following the Definition of Synergy (the interaction or cooperation of two or more organizations, substances, or other agents to produce a combined effect greater than the sum of their separate effects), an 'additive measure' was used to determine synergy in the laboratory testing, as well as in the human testing. […] Significance was determined by the use of 95% confidence intervals.
For human testing, the LDP Line software was used to determine "additive repellency" differences.

Aedes aegypti = experiment: Laboratory screening, modified K & D chamber (Gupta Box), treated blood-filled membrane wells; type: in vivo; conditions: adjusted, relative to control
Procedure: A modified K & D chamber or "Gupta Box" was used to screen 4 compounds plus an untreated control, simultaneously. Five replicates of 250 adult female mosquitoes each were placed in clear plastic cages (Gupta boxes) with access to five warmed, blood-filled, membrane-covered wells. The mosquitoes used were Aedes aegypti. Membranes were treated with repellent dilutions or diluent only. Five replicates were tested, rotating positions within the chamber. Each replicate used a fresh batch of mosquitoes, blood and treated membranes. The number of mosquitoes probing each well was recorded at two minute intervals for 20 minutes. The total numbers of probes on each well were tallied at the end of the observation period and the average percentage repellency relative to the control was calculated for each formulation. To compare formulations from different tests, the control probes were adjusted to 100 for each test and the formula then applied to each formulation to adjust accordingly. For laboratory testing, additive repellency was determined by adding the adjusted percent repellency for each dose used in the combination treatment. This "Expected additive repellency" was then compared to the "actual repellency" seen when the combination was tested in the Gupta box.

[1] = human arm in cage, compound alone
[2] = 0.5% of the compound alone on membrane
[3] = PMD Combinations, calculations based on PMD dose
[4] = human arm in cage, PMD dose, PMD alone or in the combination (calculations based on PMD dosage)
[5] = 1% of the compound alone on membrane
[6] = DEET Combinations, calculations based on DEET dose
[7] = human arm in cage, DEET dose, DEET alone or in the combination (calculations based on DEET dosage)

Q: Which “% Repelled” value (Aedes aegypti mosquitoes; Gamma Dodecalactone alone at Dose 0.4177 % Active (its ED25)) does the source give for CCCCCCCCC1CCC(=O)O1 (centres unmarked) [Gamma Dodecalactone, gamma-dodecalactone] here?
A: Its value is 25%.

Q: What about the “ED25, Dose (% γ Dodecalactone)” value (Aedes aegypti mosquitoes; [1]) of the same compound?
A: Its value is 0.4177 % γ Dodecalactone.

Q: And the “ED50, Dose (% γ Dodecalactone)” value (Aedes aegypti mosquitoes; [1])?
A: The value was 1.8022 % γ Dodecalactone.

Q: What about the “ED75, Dose (% γ Dodecalactone)” value (Aedes aegypti mosquitoes; [1]) of the same compound?
A: Its value is 7.7764 % γ Dodecalactone.

Q: And the “ED90, Dose (% γ Dodecalactone)” value (Aedes aegypti mosquitoes; [1])?
A: Its value is 28.994 % γ Dodecalactone.

Q: What about the “ED95, Dose (% γ Dodecalactone)” value (Aedes aegypti mosquitoes; [1]) of the same compound?
A: Its value is 63.726 % γ Dodecalactone.

Q: With CC(=O)CCC=C(C)CCC=C(C)C [Geranyl Acetone, 6,10-dimethyl-5,9-undecadien-2-one] as the compound, how does the “% Repelled” value (Aedes aegypti mosquitoes; Geranyl Acetone alone at Dose 0.736 % Active (its ED25)) read?
A: Its value is 25%.

Q: And the “ED25, Dose (% Geranyl Acetone)” value (Aedes aegypti mosquitoes; [1])?
A: The value was 0.736 % Geranyl Acetone.

Q: What about the “ED50, Dose (% Geranyl Acetone)” value (Aedes aegypti mosquitoes; [1]) of the same compound?
A: The value was 2.831 % Geranyl Acetone.

Q: What about the “ED75, Dose (% Geranyl Acetone)” value (Aedes aegypti mosquitoes; [1]) of the same compound?
A: Its value is 10.889 % Geranyl Acetone.

Q: And the “ED90, Dose (% Geranyl Acetone)” value (Aedes aegypti mosquitoes; [1])?
A: Its value is 36.608 % Geranyl Acetone.

Q: What about the “ED95, Dose (% Geranyl Acetone)” value (Aedes aegypti mosquitoes; [1]) of the same compound?
A: Its value is 75.631 % Geranyl Acetone.

Q: And the percent repellency (Aedes aegypti; [2])?
A: The percent repellency was 26.7% and 26.69%.

Q: Which “% Repelled” value (Aedes aegypti mosquitoes; Lactic Acid alone at Dose 2.7938 % Active (its ED25)) does the source give for CC(O)C(=O)O (centres unmarked) [Lactic Acid, Lactic acid] here?
A: The value was 25%.

Q: What about the “ED25, Dose (% Lactic Acid)” value (Aedes aegypti mosquitoes; [1]) of the same compound?
A: The value was 2.794 % Lactic Acid.

Q: What about the “ED50, Dose (% Lactic Acid)” value (Aedes aegypti mosquitoes; [1]) of the same compound?
A: Its value is 6.143 % Lactic Acid.

Q: And the “ED75, Dose (% Lactic Acid)” value (Aedes aegypti mosquitoes; [1])?
A: Its value is 13.51 % Lactic Acid.

Q: What about the “ED90, Dose (% Lactic Acid)” value (Aedes aegypti mosquitoes; [1]) of the same compound?
A: The value was 27.45 % Lactic Acid.

Q: And the “ED95, Dose (% Lactic Acid)” value (Aedes aegypti mosquitoes; [1])?
A: The value was 41.96 % Lactic Acid.

Q: How did the “ED90 (%AI)” value (Aedes aegypti mosquitoes; [3]) turn out when CC1CCC(C(C)(C)O)C(O)C1 (centres unmarked) [PMD, para-menthane-3,8-diol] was run?
A: The value was 3.846 %AI.

Q: And the Index (Aedes aegypti mosquitoes; [3])?
A: Its Index is 4.36.

Q: What about the RR (Aedes aegypti mosquitoes; [3]) of the same compound?
A: Its RR is 22.94.

Q: What about the “% Repelled” value (Aedes aegypti mosquitoes; PMD alone at Dose 0.1275 % Active (its ED25)) of the same compound?
A: Its value is 25%.

Q: What about the “ED25, Dose (% PMD)” value (Aedes aegypti mosquitoes; [4]) of the same compound?
A: The value was 0.128 % PMD and 0.1275 % PMD.

Q: What about the “ED50, Dose (% PMD)” value (Aedes aegypti mosquitoes; [4]) of the same compound?
A: The value was 0.4128 % PMD and 0.413 % PMD.

Q: What about the “ED75, Dose (% PMD)” value (Aedes aegypti mosquitoes; [4]) of the same compound?
A: Its value is 1.3362 % PMD.

Q: And the “ED90, Dose (% PMD)” value (Aedes aegypti mosquitoes; [4])?
A: The value was 3.8464 % PMD.

Q: What about the “ED95, Dose (% PMD)” value (Aedes aegypti mosquitoes; [4]) of the same compound?
A: The value was 7.2415 % PMD.

Q: What about the percent repellency (Aedes aegypti; [5]) of the same compound?
A: Its percent repellency is 26.35% and 26.4%.

Q: What about the percent repellency (Aedes aegypti; 1.5% of the compound alone on membrane) of the same compound?
A: The percent repellency was 34.6%.

Q: What does the source list for CCN(CC)C(=O)c1cccc(C)c1 [DEET, N,N-Diethyl-m-toluamide]?
A: ED90 (%AI) (Aedes aegypti mosquitoes; [6]): 1.443 %AI; Index (Aedes aegypti mosquitoes; [6]): 10.32; RR (Aedes aegypti mosquitoes; [6]): 9.69; % Repelled (Aedes aegypti mosquitoes; DEET alone at Dose 0.0351 % Active (its ED25)): 25%; ED25, Dose (% DEET) (Aedes aegypti mosquitoes; [7]): 0.035 % DEET and 0.0351 % DEET; ED50, Dose (% DEET) (Aedes aegypti mosquitoes; [7]): 0.1263 % DEET and 0.126 % DEET; ED75, Dose (% DEET) (Aedes aegypti mosquitoes; [7]): 0.4552 % DEET; ED90, Dose (% DEET) (Aedes aegypti mosquitoes; [7]): 1.4431 % DEET; ED95, Dose (% DEET) (Aedes aegypti mosquitoes; [7]): 2.8783 % DEET; percent repellency (Aedes aegypti; [2]): 29.55%; percent repellency (Aedes aegypti; [5]): 52.9%
